In assay [1] the test system is human wild type p21 promoter. Nature of the assay: p21 promoter assay (luciferase) in MFLL-9 cells. The class given is cell-based. As to conditions: 20 hours, concentration giving 1000% luminescence relative to negative control (100%).
The test system of assay [2] is colon cancer cell line HCT-116. Briefly: Human cancer cell line panel, proliferation (sulforhodamine B). It counts as cell-based. As to conditions: HCT-116, 2 days of cultivation; read-out: 50% inhibitory concentration, proliferation. An excerpt: The characteristics of the human cancer cell proliferation-inhibiting activity of the compounds of the present invention were examined by the “method of evaluating the mechanisms of action of compounds using a panel of human cancer cell lines” as proposed by Yamori et al. (cf. Gan to Kagaku Ryoho (Cancer and Chemotherapy) 29 Suppl. II (2002) and Cancer Chemother. Pharmacol. 52 Suppl. I, S74-79 (2003)).
This system includes […] (7 lung cancer, 6 stomach cancer, 5 colon cancer, 5 ovarian cancer, 6 brain tumor, […], 2 kidney cancer and 2 prostate cancer cell lines as well as one melanoma line) and the method comprises measuring the in vitro drug susceptibilities of those cancer cell lines and expressing the differences in drug susceptibility among the respective cancer cell lines as a fingerprint. […] By utilizing this property, it is possible to estimate the mechanisms of action of a compound. The above method is also characterized in that an anticancer substance showing new and unique mechanisms of action different from those of the existing anticancer agents can be selected.
Cancer cells of each cell line are sowed onto a 96-well plate, a sample solution is added on the next day and, after 2 days of cultivation, the cell proliferation is measured by colorimetry using sulforhodamine B. The deviations in effective concentration for the respective cancer cell lines from the mean effective drug concentration for the 39 cancer cell lines subjected to measurement are calculated and shown in the form a fingerprint.

2 compounds from US8158587B2, “Compound having histone deacetylase-inhibiting activity, and pharmaceutical composition comprising the compound as an active ingredient” (Kyushu Institute of Technology, priority 2006, dated 2012) can be followed below.

Consider `CC1(C)NC(=O)[C@H](CCCCCSCc2ccncc2)NC(=O)[C@H]2CCCN2C(=O)[C@H](Cc2ccccc2)NC1=O` [Ky-26, cyclo(-L-Am7(4-pyridylmethyl)-Aib-L-Phe-D-Pro-)], for which, in assay [1], the “p21 promoter activity EC1000” value came out at 0.010 µM. In assay [2], the IC50 was not above 0.1 µM.

Take `CC(=O)CSCCCCC[C@@H]1NC(=O)[C@H]2CCCN2C(=O)[C@H](Cc2ccccc2)NC(=O)C(C)(C)NC1=O` [Ky-72, cyclo(-L-Am7(acetonyl)-Aib-L-Phe-D-Pro-)]: the “p21 promoter activity EC1000” value in assay [1] stood at 0.031 µM. Besides, the IC50 in assay [2] is not above 0.01 µM.
